# Ends that are not written are not given here.
# B1: B. bovis AMA-1 Domain I-derived peptide 42437 (peptide)
# peptide: YMQKFDIPRNHGSGIYVDLG
# modifications: also: 125I radio-iodination, site not given here
# B2: B. bovis AMA-1 Domain I-derived peptide 42438 (peptide)
# peptide: GYESVGSKSYRMPVGKSPVV
# modifications: also: 125I radio-iodination in tracer use, site not given here
# Experiments:
# bovine erythrocytes = assay: Radiolabelled peptide bovine erythrocyte binding assay (initial screen)
# Protocol: Peptide selection was based on the degree of conservation and the presence of functionally constricted regions found throughout B. bovis ama-1 gene. Twelve peptides were synthesised using the tert-butoxycarbonyl (t-Boc) strategy and solid-phase synthesis methodology. Cysteine residues were replaced by serine residue to avoid oxidation; a tyrosine residue was added to peptides lacking one in their native sequences to enable radiolabelling. The peptides were analysed using reversed-phase high-performance liquid chromatography (RP-HPLC) and MALDI-TOF mass spectrometry (Bruker Daltonics) after having been cleaved by the low–high hydrogen fluoride technique. Every peptide (10 μL) diluted at 1mg/mL in 4-(2-hydroxyethyl)-1-piperazineethanesulphonic acid buffered saline (HBS) was individually radiolabelled for 15 min using 3 μL Na^125I (100 mCi/mL; ARC) and 15 μL chloramine T (2.75 mg/mL). […] A gamma counter (Packard Cobra II) was used for measuring/quantifying single samples’ radioactivity.
# (§1) The assays for every B. bovis AMA-1-derived synthetic peptide binding to bovine erythrocytes were carried out as described for P. falciparum, with some modifications. […] HABP bovine erythrocyte binding selection criteria were determined according to that established for P. falciparum. […]
# bovine RBCs = assay: Saturation assay of radiolabelled HABPs; type: binding; conditions: saturation analysis; 7.5 × 10^7 RBCs, radiolabelled HABP 0–6000 nM, ± unlabelled peptide ~26 μM, 90 min at RT, 1:1 interaction model
# Protocol: Modified binding assays were carried out to determine kinetic constants associated with B. bovis AMA-1 HABP binding interaction with bovine RBCs. Briefly, 7.5 × 10^7 RBCs were incubated with a wide range of concentrations of each radiolabelled HABP (0–6000 nM) in the absence or presence of unlabelled peptide (~26 μM) at final 245 μL volume. Samples were incubated for 90 min at RT and then washed twice with HBS before measuring cell-associated radioactivity on a gamma counter. Equilibrium dissociation constants (kD), equivalent to the ligand concentration (moles/litre) occupying half of the receptors, were calculated by equilibrium phase curve (using a 1:1 interaction model). Hill coefficients (nH) were calculated by taking saturation results; positive cooperativity was assumed if nH had values higher than 1 which could have been the result of a binding site’s increased affinity due to a ligand’s previous binding to another site. Conversely, nH values lower than 1 would have indicated negative cooperativity (also called antagonism) and the first ligand molecule’s binding would have reduced the probability of a second molecule binding.
# [1] = test system: trypsin-, chymotrypsin-, and neuraminidase-treated bovine erythrocytes; assay: Binding assay with enzyme-treated erythrocytes; conditions: 37 °C, 1h 30 min, untreated RBC as control, SD below 5%
# Protocol: A blood sample was obtained by jugular venepuncture from a clinically healthy Normande 18month-old bull and collected in anticoagulant tubes. The animal was properly restrained/fastened and then its head was secured by a strap and rope. After locating the external jugular vein and applying pressure, the area was disinfected with ethanol for inserting the needle at a 30° angle and 20 mL blood samples were collected in tubes containing sodium citrate using the closed system. The above procedures and animal maintenance and handling were carried out at the Remanso farm, according to guidelines for the care of large animals established by Universidad de Ciencias Aplicadas y Ambientales (U.D.C.A)’s ethics committee (regulated by agreement No. 285/2008) using the protocol described in the minute 201901. The collected blood was washed thrice with HBS (1:1 ratio) to eliminate the sera and the leucocyte layer by spinning at 1600× g for 5 min for each run. A 60% erythrocyte solution was incubated at 37 °C for 1h 30 min with trypsin (1 mg/mL), chymotrypsin (1 mg/mL) and neuraminidase (100 μU/mL). After three washes using 250× g for 3 min, 4 × 10^5 erythrocytes were incubated with 5 μM […] at 37 °C for 45 min in the dark. An assay was carried out with erythrocytes treated at 37 °C for 30 min or with 0.05% or 0.005% triton X-100 for 15 min at room temperature (RT) for using them as cell lysis controls. A FACSC Canto II cytometer (BD) was used for determining cell viability by analysing 100,000 events.
# as §1
# [2] = test system: bovine erythrocyte membrane receptor; assay: Cross-linking assay (BS3, SDS-PAGE, autoradiography); type: binding; conditions: autoradiogram, Figure 2c
# Protocol: Cross-linking assays were used in triplicate for evaluating B. bovis AMA-1 interaction with any membrane receptor. The assay consisted of incubating radiolabelled peptide with 7.5 × 10^7 bovine erythrocytes (v/v) at RT for 2 h at 4 rpm. A competition assay was used as control using an excess of non-radiolabelled peptide. The mixture was incubated for two hours at RT with 0.4 µg/mL bis(sulphosuccinimidyl) suberate (BS3) and then washed thrice with HBS. The cells were then lysed in 30 µL lysis buffer (15 µL buffer A (50 mM Tris-HCl, 100 mM NaCl and 0.1 mM EDTA) and 15 µL buffer B (0.5 M Tris-HCl, 10% SDS (w/v), 25% glycerol, 0.5% (w/v) bromophenol blue and […] β-mercaptoethanol, pH 6.8)) and spun at 14,000× g for 10 min. SDS-PAGE was used for separating the proteins and radioactivity signals were observed by autoradiography. Radiolabelled peptide 43437 (1 µM) binding competition assay involved using different non-radiolabelled peptide 42438 concentrations (0–160 µM).
# [3] = target: receptor on bovine erythrocytes having an apparent 75 kDa molecular weight (bovine (endogenous in bovine erythrocytes)); assay: radioligand binding; saturation: 7.5 x 10^7 bovine erythrocytes, 125I-peptide 0-6000 nM without or with ~26 μM unlabelled peptide, 245 μL, 90 min at RT, HBS washes; 1:1 model, Hill plot
# [4] = target: receptor on bovine erythrocytes having an apparent 75 kDa molecular weight (bovine (endogenous in bovine erythrocytes)); assay: radioligand binding; as the screen but on erythrocytes treated beforehand with trypsin (1 mg/mL), chymotrypsin (1 mg/mL) or neuraminidase (100 μU/mL); 1 h at 37 °C without shaking; untreated erythrocytes as control
molecule,measurement,setting,value
CPMHPVRDAIFGKWSGGSCV [compound 42443],specific binding slope (binding activity),"bovine erythrocytes; 7.5 × 10^7 normal cells, 2 h at RT, radiolabelled peptide 20–200 nM, absence or presence of non-radiolabelled peptide 20 μM, 200 μL, triplicate, HABP if slope ≥0.01 (1%)",> 0.01
same,Kd,bovine RBCs,2400 nM
same,reduction of binding with chymotrypsin-treated erythrocytes,[1]; erythrocytes treated with chymotrypsin 1 mg/mL,46%
same,reduction of binding with neuraminidase-treated erythrocytes,[1]; erythrocytes treated with neuraminidase 100 μU/mL,42%
same,reduction of binding with trypsin-treated erythrocytes,[1]; erythrocytes treated with trypsin 1 mg/mL,a lesser effect
same,intensity of cross-linking interaction with the receptor,[2],significantly less intense
RGVGMNWATYDKDSG [^395R-G^409],"interaction with bovine erythrocytes (binding activity, in words)","bovine erythrocytes; radiolabelled peptide-cell interaction assay, Figure 1b",did not interact with bovine erythrocytes
B1,Kd,[3],1100 nM
same,"percent reduction of binding, chymotrypsin-treated against untreated erythrocytes",[4],58%
same,"percent reduction of binding, neuraminidase-treated against untreated erythrocytes",[4],36%
same,"percent reduction of binding, trypsin-treated against untreated erythrocytes",[4],31%
B2,Kd,[3],1300 nM
same,"percent reduction of binding, chymotrypsin-treated against untreated erythrocytes",[4],66%
